Data as given in US20230059009A1, “INHIBITORS OF LIN28 AND METHODS OF USE THEREOF” (The Regents of the University of California, priority 2019, published 2023).
Values belong to the compound of their own block, whether it stands above or below them.

Tests used:
[1] = biological target: T1, LIN28B/pre-let-7a-2 binding (Homo sapiens, UniProt Q6ZN17); assay: FRET assay, EGFP-tagged LIN28B and BHQ-1 labelled pre-let-7a-2; conditions: doses 1.25 uM-20 uM; compared with LN1632
T1 construct: made in house; host or cells: stably transduced HEK cells; used as diluted protein lysate, not purified
T1 sequence (Q6ZN17 1-250): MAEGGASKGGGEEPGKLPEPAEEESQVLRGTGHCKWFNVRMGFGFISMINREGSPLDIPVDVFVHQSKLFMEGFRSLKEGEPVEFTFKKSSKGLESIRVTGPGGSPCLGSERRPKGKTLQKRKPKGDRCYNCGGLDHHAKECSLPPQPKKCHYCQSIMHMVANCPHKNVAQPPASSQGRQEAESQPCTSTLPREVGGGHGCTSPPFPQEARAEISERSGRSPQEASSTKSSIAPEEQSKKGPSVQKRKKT
Method: As described herein, compounds of formula (I) and (II) show Lin28/let-7 inhibitory activity in FRET assays in vitro and in LSCs and LSC-like Kasumi-1 cells. FRET assay was performed as previously described (51).
In order to improve binding and inhibitory capacity of a compound to LIN28b, we predicted the binding mode of LN1632 to LIN28B. […] With this model in hand, we synthesized novel compounds with improved binding capacity to Lin28b (JGJ002-JGJ008, FIG. 8). Compounds were screened using a previously described FRET-assay with an EGFP-tagged LIN28B as donor and a BHQ-1 quencher labelled pre-let-7a-2 (pre-let-7a-2-BHQ1) as acceptor (51). Briefly, recombinant LIN28B-EGFP was harvested from stably transduced HEK cells and diluted with binding buffer (300 mM NaCl, 25 mM HEPES pH 7.2, 10 μM ZnCl2, 1% Odyssey Blocking Buffer, 0.05% Tween 20, 0.5 mM TCEP) in order to adjust ideal FRET-quenching signal intensity. Protein lysate and compounds (JGJ001-JGJ008) were pre-incubated in doses ranging from 1.25 uM-20 uM for 20 min in 100 uL diluted protein lysate. Subsequently pre-let-7a-2-BHQ1 was added to the mixture (at 6.25 nM) and EGFP-LIN28B donor emission was measured using a Tecan Spark Plate Reader ([…], excitation at 488 nm, emission read-out at […], 30 flashes/s). […] Increased endogenous let-7 miRNA levels can target a panoply of LCS and cancer stem cell hallmark genes thus inhibiting tumor growth.
(§1) To test the structure-activity relationship, 39 LN1632-related analogs (JGJ001-39) were synthesized and their potency and specificity to inhibit LIN28B-RNA binding activity and upregulate mature let-7 miRNA levels was measured. […] The dual luciferase reporter assay was performed as previously described (89).

[2] = biological target: T2, CYP 2C8 (Homo sapiens, UniProt P10632); assay: CYP inhibition 2C8; assay type: in vitro ADME; parameters: unit not given here; conditions: Conc. 10 uM
T2 sequence (P10632 1-490): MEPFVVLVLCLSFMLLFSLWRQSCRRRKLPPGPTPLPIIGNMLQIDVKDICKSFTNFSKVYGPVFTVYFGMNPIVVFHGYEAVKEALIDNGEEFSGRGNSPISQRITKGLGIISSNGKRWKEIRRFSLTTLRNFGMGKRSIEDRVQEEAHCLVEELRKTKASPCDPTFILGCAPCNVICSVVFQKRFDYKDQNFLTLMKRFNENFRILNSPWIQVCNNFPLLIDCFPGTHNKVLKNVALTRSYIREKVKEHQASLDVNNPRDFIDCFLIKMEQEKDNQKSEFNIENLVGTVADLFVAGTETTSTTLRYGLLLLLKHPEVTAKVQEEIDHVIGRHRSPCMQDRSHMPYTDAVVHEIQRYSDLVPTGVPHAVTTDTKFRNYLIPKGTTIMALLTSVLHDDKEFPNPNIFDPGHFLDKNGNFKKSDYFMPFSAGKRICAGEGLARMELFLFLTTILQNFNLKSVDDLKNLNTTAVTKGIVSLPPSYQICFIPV

[3] = Microsomal stability, Human; assay type: in vitro ADME; conditions: Conc. 5 uM
[4] = biological target: T3, CYP 2B6 (Homo sapiens, UniProt P20813); assay: CYP inhibition 2B6; assay type: in vitro ADME; parameters: unit not given here; conditions: Conc. 10 uM
T3 sequence (P20813 1-491): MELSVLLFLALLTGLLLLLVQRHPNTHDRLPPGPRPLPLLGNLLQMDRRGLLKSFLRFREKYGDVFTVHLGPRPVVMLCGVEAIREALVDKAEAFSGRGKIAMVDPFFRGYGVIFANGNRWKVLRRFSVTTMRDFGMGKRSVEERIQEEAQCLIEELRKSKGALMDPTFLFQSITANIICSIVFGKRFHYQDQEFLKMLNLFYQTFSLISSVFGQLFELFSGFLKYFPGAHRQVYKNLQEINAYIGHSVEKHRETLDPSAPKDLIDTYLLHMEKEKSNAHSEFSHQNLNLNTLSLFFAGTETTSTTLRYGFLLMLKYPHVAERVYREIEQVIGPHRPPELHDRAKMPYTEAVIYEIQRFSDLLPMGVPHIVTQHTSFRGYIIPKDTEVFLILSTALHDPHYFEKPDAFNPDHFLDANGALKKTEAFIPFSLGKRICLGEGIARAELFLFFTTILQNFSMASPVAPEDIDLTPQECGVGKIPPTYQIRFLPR

[5] = biological target: CYP 2D6 (Homo sapiens, UniProt P10635); assay: CYP inhibition 2D6; assay type: in vitro ADME; parameters: unit not given here; conditions: Conc. 10 uM
[6] = biological target: CYP 2C19 (Homo sapiens, UniProt P33261); assay: CYP inhibition 2C19; assay type: in vitro ADME; parameters: unit not given here; conditions: Conc. 10 uM
[7] = biological target: T4, CYP 1A2 (Homo sapiens, UniProt P05177); assay: CYP inhibition 1A2; assay type: in vitro ADME; parameters: unit not given here; conditions: Conc. 10 uM
T4 sequence (P05177 1-516): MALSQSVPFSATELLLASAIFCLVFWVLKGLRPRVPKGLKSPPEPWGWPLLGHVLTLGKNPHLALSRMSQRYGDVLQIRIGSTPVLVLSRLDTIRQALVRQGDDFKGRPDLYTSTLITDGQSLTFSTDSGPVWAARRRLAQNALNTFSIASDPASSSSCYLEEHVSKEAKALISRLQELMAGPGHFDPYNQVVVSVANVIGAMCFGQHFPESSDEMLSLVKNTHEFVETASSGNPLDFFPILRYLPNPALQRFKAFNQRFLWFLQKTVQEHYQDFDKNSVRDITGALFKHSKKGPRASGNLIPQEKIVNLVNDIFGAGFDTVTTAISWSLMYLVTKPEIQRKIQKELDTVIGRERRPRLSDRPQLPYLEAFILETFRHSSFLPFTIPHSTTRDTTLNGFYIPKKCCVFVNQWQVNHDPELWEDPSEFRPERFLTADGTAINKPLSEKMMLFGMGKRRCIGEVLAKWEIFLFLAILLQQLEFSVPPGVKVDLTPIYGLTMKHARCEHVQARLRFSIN

[8] = test system: mature let-7 miRNAs; assay: Dual luciferase reporter assay of mature let-7 miRNAs in HepG2 cells; assay type: cell-based; conditions: 3-10 μM, compared with LN1632
Method: as §1

[9] = Caco2 permeability; assay type: in vitro ADME; conditions: human, Caco-2, Conc. 5 uM
[10] = Microsomal stability, CD-1 Mouse; assay type: in vitro ADME; conditions: Conc. 5 uM
[11] = biological target: CYP 2C9 (Homo sapiens, UniProt P11712); assay: CYP inhibition 2C9; assay type: in vitro ADME; parameters: unit not given here; conditions: Conc. 10 uM
[12] = test system: H1975; assay: Cell viability, MTT assay, H1975; assay type: cell-based; conditions: Homo sapiens, NCI-H1975, H1975 (Lung)
Method: (§2) To measure cell viability, cell titer glow (CTG, Promega CellTiter-Glo 2.0 Assay) and MTT assays (SigmaAldrich, Cell Proliferation Kit I) were performed. Briefly, cells were serum starved overnight prior to seeding in 96-well plates. Following 24 h incubation, cells were treated with increasing concentrations of JGJ compounds for 96 hr. At assay read-out, CellTiter-Glo reagent was added and luminescence was measured after 10-minutes incubation at room temperature. For the MTT assay, MTT labeling reagent was added and incubated for 4 h. Subsequently, medium was removed and 50 μL DMSO was added to solubilize the crystals, and absorbance was measured at 570 nm. Cell viability was calculated as (Sample-Background)/(Control-Background).

[13] = test system: A549; assay: Cell viability, MTT assay, A549; assay type: cell-based; conditions: Homo sapiens, A549 (Lung)
Method: as §2

[14] = microsomes, read-out: Microsomal stability T½

Sequence of CYP 2C9 (P11712 whole entry): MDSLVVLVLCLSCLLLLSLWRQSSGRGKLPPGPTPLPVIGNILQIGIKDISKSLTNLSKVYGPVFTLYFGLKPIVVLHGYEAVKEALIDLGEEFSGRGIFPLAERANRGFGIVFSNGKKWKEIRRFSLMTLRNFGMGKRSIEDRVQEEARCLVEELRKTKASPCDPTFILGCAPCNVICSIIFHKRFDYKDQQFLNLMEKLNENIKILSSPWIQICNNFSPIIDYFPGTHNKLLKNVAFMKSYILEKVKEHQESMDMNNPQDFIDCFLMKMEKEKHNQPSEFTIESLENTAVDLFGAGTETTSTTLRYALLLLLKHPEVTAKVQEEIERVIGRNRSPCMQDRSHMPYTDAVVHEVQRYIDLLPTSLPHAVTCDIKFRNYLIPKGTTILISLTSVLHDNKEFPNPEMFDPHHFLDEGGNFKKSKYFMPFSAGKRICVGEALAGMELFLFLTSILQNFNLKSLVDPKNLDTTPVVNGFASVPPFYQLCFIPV
Sequence of CYP 2D6 (P10635 whole entry): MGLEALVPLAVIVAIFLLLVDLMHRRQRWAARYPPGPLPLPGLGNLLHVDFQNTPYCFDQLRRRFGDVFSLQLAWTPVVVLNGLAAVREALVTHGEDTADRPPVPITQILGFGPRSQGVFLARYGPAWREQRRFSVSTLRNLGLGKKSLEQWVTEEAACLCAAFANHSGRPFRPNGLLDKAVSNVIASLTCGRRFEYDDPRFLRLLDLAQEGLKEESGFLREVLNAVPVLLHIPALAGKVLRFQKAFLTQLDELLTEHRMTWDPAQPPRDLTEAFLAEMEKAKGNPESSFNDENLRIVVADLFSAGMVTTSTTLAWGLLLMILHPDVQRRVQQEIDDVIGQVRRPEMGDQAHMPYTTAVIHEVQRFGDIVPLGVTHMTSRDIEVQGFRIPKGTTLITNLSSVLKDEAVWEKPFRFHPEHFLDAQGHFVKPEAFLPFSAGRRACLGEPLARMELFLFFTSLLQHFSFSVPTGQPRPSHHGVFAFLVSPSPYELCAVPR
Sequence of CYP 2C19 (P33261 whole entry): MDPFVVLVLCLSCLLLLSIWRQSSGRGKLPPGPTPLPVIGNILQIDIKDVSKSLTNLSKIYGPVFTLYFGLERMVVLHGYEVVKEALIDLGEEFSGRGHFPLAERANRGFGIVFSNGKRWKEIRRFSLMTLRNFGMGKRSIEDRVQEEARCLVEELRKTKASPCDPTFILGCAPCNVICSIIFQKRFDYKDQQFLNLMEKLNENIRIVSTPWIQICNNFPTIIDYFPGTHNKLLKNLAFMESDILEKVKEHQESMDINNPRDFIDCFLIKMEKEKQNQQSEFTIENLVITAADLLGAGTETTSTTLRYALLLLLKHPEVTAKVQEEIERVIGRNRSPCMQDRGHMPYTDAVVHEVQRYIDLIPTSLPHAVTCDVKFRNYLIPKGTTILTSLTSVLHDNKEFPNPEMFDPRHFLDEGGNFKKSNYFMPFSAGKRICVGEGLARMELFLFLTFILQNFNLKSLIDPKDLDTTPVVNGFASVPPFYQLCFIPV

Structure (SMILES): Cc1cnc2ccc(-c3cccc([N+](=O)[O-])c3)nn12 [JGJ005, 3-Methyl-6-(3-nitrophenyl)imidazo[1,2-b]pyridazine]
- Inhibition of LIN28B binding to pre-let-7a (FRET signal) [1]: greater inhibition of the LIN28B/pre-let-7a2 binding than the original compound LN1632

Structure (SMILES): CC(=O)N(C)c1cccc(-c2ccc3ncc(C)n3n2)c1 [JGJ008, N-Methyl-N-(3-(3-methylimidazo[1,2-b]pyridazin-6-yl)phenyl)acetamide]
- Inhibition of LIN28B binding to pre-let-7a (FRET signal) [1]: greater inhibition of the LIN28B/pre-let-7a2 binding than the original compound LN1632

- CYP inhibition 2C8 [2]: 61.1
- Microsomal stability % Remaining at T30 [3]: T30 = 54.7%
- microsomal CLint at 5 uM ([3]; microsomes): 38.2 µL/min/mg
- half-life at 5 uM [3, 14]: 36.2 min
- CYP inhibition 2B6 [4]: 30.9
- CYP inhibition 2D6 [5]: 67.8
- CYP inhibition 2C19 [6]: 35
- CYP inhibition 1A2 [7]: 96.2
- Papp A→B at 5 uM [9]: 27.2 ×10⁻⁶ cm/s
- Papp B→A at 5 uM [9]: 25 ×10⁻⁶ cm/s
- efflux ratio at 5 uM [9]: 0.6
- recovery at 5 uM ([9]; read-out: Caco2 Mean A-B % Recovery): 84%
- Microsomal stability % Remaining at T30 [10]: T30 = 17%
- microsomal CLint at 5 uM ([10]; microsomes): 118 µL/min/mg
- half-life at 5 uM [10, 14]: 11.8 min
- CYP inhibition 2C9 [11]: 48.8
Structure (SMILES): CC(=O)Nc1cc(F)cc(-c2ccc3ncc(C)n3n2)c1 [JGJ026, N-(3-Fluoro-5-(3-methylimidazo[1,2-b]pyridazin-6-yl)phenyl)acetamide]
- Inhibition of LIN28B binding to pre-let-7a (FRET signal) [1]: inhibit LIN28's RNA-binding capacity significantly more than compound LN1632
- Upregulation of mature let-7 miRNAs [8]: upregulated mature let-7 miRNAs at significantly lower doses than LN1632

Structure (SMILES): Nc1cccc(-c2ccc3ncc(-c4ccccc4)n3c2)c1 [JGJ032, 3-(3-Phenylimidazo[1,2-a]pyridin-6-yl)aniline]
- Inhibition of LIN28B binding to pre-let-7a (FRET signal) [1]: inhibit LIN28's RNA-binding capacity significantly more than compound LN1632

- IC50 [12]: 21 µM
- IC50 [13]: 11 µM
Structure (SMILES): C=CC(=O)Nc1cc(Nc2nccc(-c3cn(C)c4ccccc34)n2)c(OC)cc1N(C)CCN(C)C [Osimertinib, reference compound]
